From US12144821B1, “Selective 3-prenyl 5-methyl ether, 7-o-rhamnoside flavone for the treatment of hepatic cancer” (KING FAISAL UNIVERSITY, priority 2024, dated 2024)

Tests used:
Assay type in all cases: cell-based, human
HepG2 cells [1] = assay: Migration assay (wound closure); settings: non-cytotoxic concentrations, 24 hours, FIGS. 2A-2B
Experimental: (§1) During the metastatic cascade of carcinomas, tumor migration and invasion is the first and most important steps. It involves profound changes in cell adhesion, allowing tumour cells to dissociate and migrate from the primary site. […] Several essential steps of metastasis, including migration (FIGS. 2A-2B) invasion (FIG. 3A-3B) of human liver cancer cells, are inhibited by the 3-prenyl 5-methyl ether, 7-O-rhamnoside.
(§2) The migration and invasion assays were conducted by photographing the cells that migrated the membrane (200× magnification). As illustrated in FIGS. 2A-2B HepG2 cells were treated with 3-prenyl 5-methyl ether, 7-O-rhamnoside at indicated doses for 24 hours. The percentage inhibition of migrating cells was quantified and expressed based on untreated cells (control) represented 100%. The migration was determined by the areas of the wound closure calculated from three microscopic fields per sample.

HepG2 cells [2] = assay: Invasion assay; settings: non-cytotoxic concentrations, FIGS. 3A-3B
Experimental: as §1, §2
As illustrated in FIGS. 3A-3B, invasiveness was determined by counting cells in three microscopic fields per sample. The inhibitory percentage of invading cells was quantified and expressed with untreated cells (control) representing 100%. Values are mean±SD of three independent experiments. (p<0.01 compared untreated cells).

HepG2 cancer cell line = assay: Cell viability assay (MTT), antiproliferative screening; settings: FIGS. 1A-1C
Experimental: Cells (HepG2) were provided from the American Type Culture Collection (ATCC) unless otherwise stated. Cells were grown in ATCC-formulated specific DMEM/F12 medium for each cell line with supplements of 5% fetal bovine serum, 10 U/ml penicillin, 10 μg/ml streptomycin, and 4% glutamine. All cell lines were placed in a humidified incubator a 37° C. in an atmosphere of 5% CO2 and 95% air. Cells were cultured into two groups. One as control cells and the other as cell lines treated for one day (3-prenyl 5-methyl ether, 7-O-rhamnoside-treated cells).
The cell viability will be tested using MTT. […] The culture supernatant was removed, the remaining MTT formazan crystals was dissolved in 400 μL of DMSO, and the absorbance was measured at 570 nm using an ELISA micro-plate reader (Bio-Tek Instruments, Winooski, VT, USA). The effect of 3-prenyl 5-methyl ether, 7-O-rhamnoside on cell viability was assessed as the percentage of viable cells compared with the vehicle-treated control cells, which were arbitrarily designated as 100%.
The cells were treated with increasing concentrations of 3-prenyl 5-methyl ether, 7-O-rhamnoside, (0-5, 10, 15, 20 and 25 μmol/mL for 24,48 and 72 h. The viability was assessed using the MTT assay. Values are mean±SD of three independent experiments. (p<0.01 compared untreated cells).

COc1cc(OC2OC(C)C(O)C(O)C2O)cc2oc(-c3ccc(O)cc3)c(CC=C(C)C)c(=O)c12 (stereo not shown) [3-prenyl 5-methyl ether, 7-O-rhamnoside, apigenin 3-prenyl 5-methyl ether, 7-O-rhamnoside]
migration of human liver cancer cells (HepG2 cells [1]): inhibited
invasion of human liver cancer cells (HepG2 cells [2]): inhibited
cytotoxicity for the HepG2 cancer cell line (cell viability, MTT) (HepG2 cancer cell line; 0, 5, 10, 15, 20 and 25 μmol, 24, 48 and 72 hrs): potentially cytotoxic
dose-dependent potentiation / enhancement of anti-proliferative effects (HepG2 cancer cell line; seen at both 15 and 20 μmol): Potentiation
